This is an account of results in patent US20250163038A1, “CBL-B MODULATORS AND USES THEREOF” (Nimbus Clio, Inc., priority 2021, published 2025).

The IC50 is the point on the concentration scale where inhibition reaches its midpoint. As a reminder, the EC50 is the concentration at which the effect is half-maximal.

In test [1] the target is Recombinant human Cbl-b (aa 36-427) (Homo sapiens, UniProt Q13191). As to the kind of experiment: Cbl-b Biochemical Assay (TR-FRET). The following applies: read-out: TR-FRET hCbl-b IC50. Background: In TR-FRET formats the signal depends on donor and acceptor labels being close together.
Sequence of Recombinant human Cbl-b (aa 36-427) (Q13191 36-427): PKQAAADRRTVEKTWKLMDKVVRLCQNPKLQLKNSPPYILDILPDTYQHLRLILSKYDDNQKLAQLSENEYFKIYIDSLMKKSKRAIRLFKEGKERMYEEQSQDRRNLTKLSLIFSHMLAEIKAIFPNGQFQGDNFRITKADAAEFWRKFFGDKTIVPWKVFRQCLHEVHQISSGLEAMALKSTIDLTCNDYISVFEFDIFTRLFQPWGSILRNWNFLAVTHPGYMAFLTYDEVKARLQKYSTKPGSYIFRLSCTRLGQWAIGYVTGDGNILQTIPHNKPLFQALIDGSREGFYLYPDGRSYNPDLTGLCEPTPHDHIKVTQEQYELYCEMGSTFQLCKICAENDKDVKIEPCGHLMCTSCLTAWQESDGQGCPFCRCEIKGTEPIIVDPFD
The subject of test [2] is Jurkat (clone E6-1) cells with NFAT luciferase reporter. As to the kind of experiment: Jurkat reporter assay (NFAT Luciferase). The format is cell-based. The following applies: Homo sapiens; Jurkat NFAT luciferase reporter cells, anti-CD3 stimulation, 6 hr; read-out: Jurkat NFAT EC50.
Test [3] has as its target T1, Recombinant human c-Cbl (aa 47-435) (Homo sapiens, UniProt P22681).
T1 sequence (P22681 47-435): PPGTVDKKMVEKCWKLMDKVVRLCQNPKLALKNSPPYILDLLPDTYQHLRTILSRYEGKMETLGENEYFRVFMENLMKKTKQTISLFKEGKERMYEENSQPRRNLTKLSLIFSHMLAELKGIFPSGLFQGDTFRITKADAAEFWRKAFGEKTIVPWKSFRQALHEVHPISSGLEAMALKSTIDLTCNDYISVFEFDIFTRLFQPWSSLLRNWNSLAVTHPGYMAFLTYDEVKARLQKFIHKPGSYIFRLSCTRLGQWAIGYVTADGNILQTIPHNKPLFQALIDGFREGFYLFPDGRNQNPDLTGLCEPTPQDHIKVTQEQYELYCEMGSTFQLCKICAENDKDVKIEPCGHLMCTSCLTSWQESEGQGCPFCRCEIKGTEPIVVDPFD
The experiment in a line: c-Cbl Biochemical Assay (TR-FRET). The note with it: hc-Cbl Biochemical Assay (TR-FRET); read-out: TR-FRET hcCbl IC50.

Each structure is given as a SMILES string.

On to `Cn1cnnc1-c1ccccc1-c1cccc(-c2nc3cc(CN[C@H]4CCC[C@@H]4O)cc(C(F)(F)F)c3o2)c1` [Example P-6, (1S,2S)-2-(((2-(2′-(4-Methyl-4H-1,2,4-triazol-3-yl)-[1,1′-biphenyl]-3-yl)-7-(trifluoromethyl)benzo[d]oxazol-5-yl)methyl)amino)cyclopentan-1-ol], for which the IC50 in test [1] is < 200 nM; in test [3] it was 1000 to 10000 nM. For the same compound, the EC50 in test [2] lay within 1000 to 10000 nM.

Consider `C[C@H]1CCCN(Cc2cc(C(F)(F)F)c3oc(-c4cccc(-c5ccccc5-c5nncn5C)c4)nc3c2)C1` [Example Q-3, (S)-2-(2′-(4-Methyl-4H-1,2,4-triazol-3-yl)-[1,1′-biphenyl]-3-yl)-5-((3-methylpiperidin-1-yl)methyl)-7-(trifluoromethyl)benzo[d]oxazole], for which the IC50 lay within 200 to 1000 nM in test [1] and 1000 to 10000 nM in test [3]. Also, the EC50 in test [2] is 1000 to 10000 nM.

With `Cn1cnnc1-c1ccccc1-c1cccc(-c2nc3cc(CN[C@@H]4CCC[C@@H]4O)cc(C(F)(F)F)c3o2)c1` [Example R-3, (1S,2R)-2-(((2-(2′-(4-Methyl-4H-1,2,4-triazol-3-yl)-[1,1′-biphenyl]-3-yl)-7-(trifluoromethyl)benzo[d]oxazol-5-yl)methyl)amino)cyclopentan-1-ol], the IC50 is < 200 nM in test [1] and 1000 to 10000 nM in test [3]. The EC50 in test [2] fell in the range of 200 to 1000 nM.

Turning to `Cn1cnnc1-c1cc(F)ccc1-c1cccc(-c2nc3cc(CN[C@@H]4CCC[C@@H]4O)cc(C(F)(F)F)c3o2)c1` [Example T-5, (1S,2R)-2-(((2-(4′-Fluoro-2′-(4-methyl-4H-1,2,4-triazol-3-yl)-[1,1′-biphenyl]-3-yl)-7-(trifluoromethyl)benzo[d]oxazol-5-yl)methyl)amino)cyclopentan-1-ol], the figures for the IC50 in test [1] and in test [3] were < 200 nM and 1000 to 10000 nM, respectively. Also, in test [2], the EC50 was in the range of 200 to 1000 nM.

Turning to `C[C@H]1CCCN(Cc2cc(C(F)(F)F)c3oc(-c4cccc(-c5ccc(F)cc5-c5nncn5C)c4)nc3c2)C1` [Example U-1, (S)-2-(4′-Fluoro-2′-(4-methyl-4H-1,2,4-triazol-3-yl)-[1,1′-biphenyl]-3-yl)-5-((3-methylpiperidin-1-yl)methyl)-7-(trifluoromethyl)benzo[d]oxazole], the values for the IC50 in test [1] and in test [3] were < 200 nM and 1000 to 10000 nM, respectively. For the same compound, in test [2], the EC50 was in the range of 200 to 1000 nM.

`C[C@@H]1CN(Cc2cc(C(F)(F)F)c3oc(-c4cccc(-c5ccc(F)cc5-c5nncn5C)c4)nc3c2)CCO1` [Example V-1, (R)-2-(4′-Fluoro-2′-(4-methyl-4H-1,2,4-triazol-3-yl)-[1,1′-biphenyl]-3-yl)-5-((2-methylmorpholino)methyl)-7-(trifluoromethyl)benzo[d]oxazole]: the values for the IC50 in test [1] and in test [3] were < 200 nM and 1000 to 10000 nM, respectively. Further, the EC50 in test [2] was 1000 to 10000 nM.

`Cn1cnnc1-c1cc(F)ccc1-c1cccc(-c2nc3cc(CN[C@@H]4CCC[C@H]4O)cc(C(F)(F)F)c3o2)c1` [Example W-2, (1R,2R)-2-(((2-(4′-Fluoro-2′-(4-methyl-4H-1,2,4-triazol-3-yl)-[1,1′-biphenyl]-3-yl)-7-(trifluoromethyl)benzo[d]oxazol-5-yl)methyl)amino)cyclopentan-1-ol]: the IC50 was < 200 nM in test [1] and 1000 to 10000 nM in test [3]. In addition, the EC50 in test [2] is 200 to 1000 nM.

For `Cn1cnnc1-c1cc(F)ccc1-c1cccc(-c2nc3cc(CO)cc(C(F)(F)F)c3o2)c1` [Example X-2, (2-(4′-Fluoro-2′-(4-methyl-4H-1,2,4-triazol-3-yl)-[1,1′-biphenyl]-3-yl)-7-(trifluoromethyl)benzo[d]oxazol-5-yl)methanol], the IC50 in test [1] was < 200 nM; in test [3], 1000 to 10000 nM. The EC50 in test [2] lay within 1000 to 10000 nM.

Take `Cn1cnnc1-c1cc(F)ccc1-c1cccc(-c2nc3cc(CNCC4(O)CCC4)cc(C(F)(F)F)c3o2)c1` [Example Y-3, 1-((((2-(4′-Fluoro-2′-(4-methyl-4H-1,2,4-triazol-3-yl)-[1,1′-biphenyl]-3-yl)-7-(trifluoromethyl)benzo[d]oxazol-5-yl)methyl)amino)methyl)cyclobutan-1-ol]: the IC50 was < 200 nM in test [1] and 1000 to 10000 nM in test [3]. The EC50 in test [2] is 200 to 1000 nM.

As for `Cn1cnnc1-c1cc(F)ccc1-c1cccc(-c2nc3cc(CNC4(CO)COC4)cc(C(F)(F)F)c3o2)c1` [Example Z-2, (3-(((2-(4′-Fluoro-2′-(4-methyl-4H-1,2,4-triazol-3-yl)-[1,1′-biphenyl]-3-yl)-7-(trifluoromethyl)benzo[d]oxazol-5-yl)methyl)amino)oxetan-3-yl)methanol], the IC50 in test [1] was < 200 nM; in test [3] it was 1000 to 10000 nM. For the same compound, in test [2], the EC50 fell in the range of 1000 to 10000 nM.

As to `COc1cc(CNCC2CCC2)cc2nc(-c3cccc(-c4ccc(F)cc4-c4nncn4C)c3)oc12` [FA-1, 1-Cyclobutyl-N-((2-(4′-fluoro-2′-(4-methyl-4H-1,2,4-triazol-3-yl)-[1,1′-biphenyl]-3-yl)-7-methoxybenzo[d]oxazol-5-yl)methyl)methanamine], the IC50 in test [1] and in test [3] was < 200 nM in each case. For the same compound, in test [2], the EC50 was < 200 nM.

For `Cn1cnnc1-c1cc(F)ccc1-c1cccc(-c2nc3cc(CNCC4CC4)cc(C(F)(F)F)c3o2)c1` [FB-2, 1-Cyclopropyl-N-((2-(4′-fluoro-2′-(4-methyl-4H-1,2,4-triazol-3-yl)-[1,1′-biphenyl]-3-yl)-7-(trifluoromethyl)benzo[d]oxazol-5-yl)methyl)methanamine], the IC50 in test [1] and in test [3] was < 200 nM in each case. Also, the EC50 in test [2] was < 200 nM.

For the compound `COCC1(CNCc2cc(C(F)(F)F)c3oc(-c4cccc(-c5ccc(F)cc5-c5nncn5C)c4)nc3c2)CCCC1` [FC-2, 1-(2-(4′-Fluoro-2′-(4-methyl-4H-1,2,4-triazol-3-yl)-[1,1′-biphenyl]-3-yl)-7-(trifluoromethyl)benzo[d]oxazol-5-yl)-N-((1-(methoxymethyl)cyclopentyl)methyl)methanamine], the IC50 in test [1] and in test [3] was < 200 nM each time. For the same compound, in test [2], the concentration giving a half-maximal response (EC50) was 200 to 1000 nM.

With `Cn1cnnc1-c1cc(F)ccc1-c1cccc(-c2nc3cc(CNCCF)cc(C(F)(F)F)c3o2)c1` [FD-2, 2-fluoro-N-((2-(4′-fluoro-2′-(4-methyl-4H-1,2,4-triazol-3-yl)-[1,1′-biphenyl]-3-yl)-7-(trifluoromethyl)benzo[d]oxazol-5-yl)methyl)ethan-1-amine], the IC50 in test [1] and in test [3] was < 200 nM each time. The EC50 in test [2] fell in the range of 200 to 1000 nM.

With `Cc1cc(CO)cc2nc(-c3cccc(-c4ccc(F)cc4-c4nncn4C)c3)oc12` [FE-3, (2-(4′-Fluoro-2′-(4-methyl-4H-1,2,4-triazol-3-yl)-[1,1′-biphenyl]-3-yl)-7-methylbenzo[d]oxazol-5-yl)methanol], the IC50 in test [1] and in test [3] was 1000 to 10000 nM in each case. In test [2], the EC50 was 10000 to 50000 nM.

For `Cn1cnnc1-c1cc(F)ccc1-c1cccc(-c2nc3cc(CO)cc(C(C)(F)F)c3o2)c1` [FF-6, (7-(1,1-Difluoroethyl)-2-(4′-fluoro-2′-(4-methyl-4H-1,2,4-triazol-3-yl)-[1,1′-biphenyl]-3-yl)benzo[d]oxazol-5-yl)methanol], the figures for the IC50 in test [1] and in test [3] were < 200 nM and 200 to 1000 nM, respectively. The EC50 in test [2] lay in the range of 1000 to 10000 nM.
